Source: patent US10179790B2 (THOMAS HELLEDAYS STIFTELSE FOR MEDICINSK FORSKNING, priority 2014, dated 2019)

How the values were obtained:
MTH1 = MTH1 (Homo sapiens, UniProt P36639); assay: MTH1 enzymatic assay and IC50 value determination (malachite green, 96- and 384-well format); type: biochemical; conditions: hydrolysis of dGTP (100 μM), MTH1 6 nM, pyrophosphatase-coupled malachite green, 15 minutes at 22° C.
Outline: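 MTH1 (6 nM) hydrolysed dGTP (100 μM) for 15 min at 22 °C in Tris-acetate buffer with Mg2+, DTT, Tween 20 and excess pyrophosphatase, 1% DMSO. Pi detected with malachite green at 630 nm. IC50 from nonlinear 4-parameter fit of 11–12-point dilution series.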

cancer cell = assay: Cell viability assay (resazurin); type: cell-based; conditions: 72 h; 3 days with compound, resazurin fluorescence; cell line not named
Outline: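 Cells in DMEM GlutaMAX or line-appropriate medium are exposed to compound for 3 days at 37 °C, 5% CO2. Viability is read as resazurin fluorescence (Ex544/Em590) after 2 h incubation. In the 384-well format, cells are seeded onto 11 pre-dispensed concentrations (final DMSO <1%) and read after 3 h resazurin.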

| SMILES | IC50 (MTH1) [nM] | IC50 (cancer cell) [nM] |
| --- | --- | --- |
| Cc1c(Cl)cccc1-c1cc(NCCOc2ccc(/C(N)=N/O)cc2)nc(N)n1 [Example 203, (Z)-4-(2-{[2-amino-6-(3-chloro-2-methylphenyl)pyrimidin-4-yl]amino}ethoxy)-N′-hydroxybenzene-1-carboximidamide] | < 200 | < 500 |
| Cc1c(Cl)cccc1-c1cc(NCCCOc2ccc(S(C)(=O)=O)cc2)nc(N)n1 [Example 204, 6-(3-chloro-2-methylphenyl)-N4-[3-(4-methanesulfonylphenoxy)propyl]pyrimidine-2,4-diamine] | < 200 | < 500 |
| Cc1c(Cl)cccc1-c1cc(NCCCOc2nccc(C(N)=O)n2)nc(N)n1 [Example 205, 2-(3-{[2-amino-6-(3-chloro-2-methylphenyl)pyrimidin-4-yl]amino}propoxy)pyrimidine-4-carboxamide] | < 200 | < 500 |
| Cc1c(Cl)cccc1-c1cc(NCCCOc2ccc(C(N)=O)cn2)nc(N)n1 [Example 206, 6-(3-{[2-amino-6-(3-chloro-2-methylphenyl)pyrimidin-4-yl]amino}propoxy)pyridine-3-carboxamide] | < 200 | < 500 |
| Cc1c(Cl)cccc1-c1cc(NCCc2ccc(S(=O)(=O)N3CCOCC3)cc2)nc(N)n1 [Example 207, 6-(3-chloro-2-methylphenyl)-N4-{2-[4-(morpholine-4-sulfonyl)phenyl]ethyl}pyrimidine-2,4-diamine] | < 200 | < 500 |
| COCCNS(=O)(=O)c1ccc(CCNc2cc(-c3cccc(Cl)c3C)nc(N)n2)cc1 [Example 208, 4-(2-{[2-amino-6-(3-chloro-2-methylphenyl)pyrimidin-4-yl]amino}ethyl)-N-(2-methoxyethyl)benzene-1-sulfonamide] | < 200 | < 500 |
| Cc1c(Cl)cccc1-c1cc(NCCc2ccc(S(=O)(=O)NC3COC3)cc2)nc(N)n1 [Example 209, 4-(2-{[2-amino-6-(3-chloro-2-methylphenyl)pyrimidin-4-yl]amino}ethyl)-N-(oxetan-3-yl)benzene-1-sulfonamide] | < 200 | < 500 |
| Cc1c(Cl)cccc1-c1cc(NCCc2ccc(S(=O)(=O)NC3CCOCC3)cc2)nc(N)n1 [Example 210, 4-(2-{[2-amino-6-(3-chloro-2-methylphenyl)pyrimidin-4-yl]amino}ethyl)-N-(oxan-4-yl)benzene-1-sulfonamide] | < 200 | < 500 |
| C#CCN(C)C(=O)c1ccc(CCNc2cc(-c3cccc(Cl)c3C)nc(N)n2)cc1 [Example 211, 4-(2-{[2-amino-6-(3-chloro-2-methylphenyl)pyrimidin-4-yl]amino}ethyl)-N-methyl-N-(prop-2-yn-1-yl)benzamide] | < 200 | < 500 |
| C#Cc1ccc(CCNc2cc(-c3cccc(Cl)c3C)nc(N)n2)cc1 [Example 212, 6-(3-chloro-2-methylphenyl)-N4-[2-(4-ethynylphenyl)ethyl]pyrimidine-2,4-diamine] | < 200 | < 500 |
| Cc1c(Cl)cccc1-c1cc(NCCOc2ccc(S(N)(=O)=O)cn2)nc(N)n1 [Example 213, 6-(2-(2-amino-6-(3-chloro-2-methylphenyl)pyrimidin-4-ylamino)ethoxy)pyridine-3-sulfonamide] | < 200 | < 500 |
| Cc1c(Cl)cccc1-c1cc(NCCOc2ccc(S(C)(=O)=O)cn2)nc(N)n1 [Example 214, 6-(3-Chloro-2-methylphenyl)-N4-(2-(5-(methylsulfonyl)pyridin-2-yloxy)ethyl)pyrimidine-2,4-diamine] | < 200 | < 500 |

Other lines, results leading:

| IC50 (MTH1) [nM] | IC50 (cancer cell) [nM] | SMILES |
| --- | --- | --- |
| < 200 | < 500 | Cc1c(Cl)cccc1-c1cc(NCCNc2ccc(S(C)(=O)=O)nc2)nc(N)n1 [Example 188, 6-(3-chloro-2-methyl-phenyl)-N4-[2-[(6-methylsulfonyl-3-pyridyl)amino]ethyl]pyrimidine-2,4-diamine] |
| < 200 | < 500 | CC(=O)Nc1ccc(NCCNc2cc(-c3cccc(Cl)c3C)nc(N)n2)cc1C [Example 189, N-[4-[2-[[2-amino-6-(3-chloro-2-methyl-phenyl)pyrimidin-4-yl]amino]ethylamino]-2-methyl-phenyl]acetamide] |
| < 200 | < 500 | CCc1ccc(CCNc2cc(-c3cccc(Cl)c3C)nc(N)n2)cc1 [Example 191, 6-(3-chloro-2-methyl-phenyl)-N4-[2-(4-ethylphenyl)ethyl]pyrimidine-2,4-diamine] |
| < 200 | < 500 | Cc1c(Cl)cccc1-c1cc(NCCc2ccc(C(=O)NC(C)CO)cc2)nc(N)n1 (stereo not drawn) [Example 194, 4-(2-{[2-amino-6-(3-chloro-2-methylphenyl)pyrimidin-4-yl]amino}ethyl)-N-(1-hydroxypropan-2-yl)benzamide] |
| < 200 | < 500 | Cc1c(Cl)cccc1-c1cc(NCCc2ccc(C(=O)N3CCN(C)CC3)cc2)nc(N)n1 [Example 195, 6-(3-chloro-2-methylphenyl)-4-N-{2-[4-(4-methylpiperazine-1-carbonyl)phenyl]ethyl}pyrimidine-2,4-diamine] |
| < 200 | < 500 | Cc1c(Cl)cccc1-c1cc(NCCc2ccc([S+](C)[O-])cc2)nc(N)n1 (stereo not drawn) [Example 196, 6-(3-chloro-2-methylphenyl)-N4-[2-(4-methanesulfinylphenyl)ethyl]pyrimidine-2,4-diamine] |
| < 200 | < 500 | Cc1c(-c2cc(NCCc3ccc(S(C)(=O)=O)cc3)nc(N)n2)cccc1C(F)(F)F [Example 198, N4-[2-(4-methanesulfonylphenyl)ethyl]-6-[2-methyl-3-(trifluoromethyl)phenyl]pyrimidine-2,4-diamine] |
| < 200 | < 500 | Cc1c(Cl)cccc1-c1cc(NCCOc2nccc3occc23)nc(N)n1 [Example 200, 6-(3-chloro-2-methylphenyl)-N4-(2-{furo[3,2-c]pyridin-4-yloxy}ethyl)pyrimidine-2,4-diamine] |
| < 200 | < 500 | Cc1c(Cl)cccc1-c1cc(NCCOc2ccc(C(N)=O)cc2)nc(N)n1 [Example 201] |
